# Test results: US10457688B2, “Monocyclic thieno, pyrido, and pyrrolo pyrimidine compounds and methods of use and manufacture of same” (Duquesne University of the Holy Spirit, priority 2015, dated 2019)
# Where two headings read alike, the source gives them in different places.
# Experiments:
# [1] = system: RT16 CHO cells expressing human FRα; settings: cited from earlier work
# [2] = system: KB human tumor cells (RFC/FRα/PCFT); assay: growth inhibition, KB tumor cells; assay type: cell-based
# Source text: The experiments with the CHO sublines were extended to KB human nasopharengeal carcinoma cells which express highly elevated FRα, along with RFC and PCFT.
# [3] = system: RT16 CHO cells expressing human FRα; assay: growth inhibition, CHO RT16 (FRα); assay type: cell-based, Chinese hamster
# [4] = system: PC43-10 CHO cells expressing human RFC; assay: growth inhibition, CHO PC43-10 (human RFC); assay type: cell-based, Chinese hamster
# [5] = system: D4 CHO cells expressing FRβ; assay: growth inhibition, CHO D4 (FRβ); assay type: cell-based, Chinese hamster
# MDA-MB-435 cancer cells = assay: antiproliferative sulforhodamine B assay (SRB assay), MDA-MB-435; assay type: cell-based; settings: Homo sapiens
# [6] = system: cellular microtubules in A-10 cells; assay: cellular microtubule depolymerization, cell-based phenotypic assay; settings: Rattus norvegicus
# [7] = system: R2/PCFT4 CHO cells expressing human PCFT; assay: growth inhibition, CHO R2/PCFT4 (PCFT); assay type: cell-based, Chinese hamster; settings: Section III Table 1
# [8] = system: R2(VC) CHO cells (transporter-null); assay: growth inhibition, vector control R2(VC) CHO cells; assay type: cell-based, Chinese hamster; settings: Cricetulus griseus, Section IV Table 1
# [9] = Section IV Table 1, +FA, read-out: KB (+FA) IC50
# [10] = Section IV Table 1, read-out: KB IC50 (RFC/FRα/PCFT)
# [11] = Section IV Table 1, +FA, read-out: RT16 (+FA) IC50
# [12] = Section IV Table 1, read-out: RT16 IC50 (FRα)
# [13] = MDA-MB-435, read-out: IC50 ± SD (MDA-MB-435) Tumor cells
# [14] = read-out: IC50 ± SD in MDA-435 Cells
# [15] = A10, read-out: EC50 for Microtubule Depolymerization in A-10 Cells
# [16] = A10, read-out: EC50 in A-10 cells (Loss of cellular microtubules)
# [17] = A10, read-out: EC50 in A-10 cells (Tubulin polymerization inhibitory activity)
# [18] = MDA-MB-435, Section VIII Table 1, read-out: IC50 + SD (MDA-MB-435) cancer cells
# [19] = A10, Section VIII Table 1, read-out: EC50 in A-10 cells (Loss of cellular microtubules)
# [20] = MDA-MB-435, Section VII Table 2, read-out: IC50 ± SD (MDA-MB-435) Tumor cells
# [21] = Section VII Table 1, read-out: IC50 ± SD in MDA-435 Cells
# [22] = A10, Section VII Table 1, read-out: EC50 for Microtubule Depolymerization in A-10 Cells
# [23] = A10, Section VII Table 2, read-out: EC50 in A-10 cells (Tubulin polymerization inhibitory activity)
# [24] = Homo sapiens, PC43-10, Section III Table 1
structure (smiles),measurement,setting,value
Nc1nc2[nH]c(CCCc3ccc(C(=O)N[C@@H](CCC(=O)O)C(=O)O)cc3)cc2c(=O)[nH]1 [AGF17],selectivity for FR transport over RFC,[1],25 fold
Nc1nc2[nH]c(CCOc3cccc(C(=O)N[C@@H](CCC(=O)O)C(=O)O)c3)cc2c(=O)[nH]1 [AGF220],IC50,[2]; [9],> 1000 nM
same,IC50,[2]; [10],13.1 nM
same,IC50,[3]; [11],> 1000 nM
same,IC50,[3]; [12],30.3 nM
same,IC50,[4]; Section IV Table 1,> 1000 nM
Nc1nc2[nH]c(CCNc3cccc(C(=O)N[C@@H](CCC(=O)O)C(=O)O)c3)cc2c(=O)[nH]1 [AGF256],IC50,[2]; [9],> 1000 nM
same,IC50,[2]; [10],14.8 nM
same,IC50,"[5]; Section IV Table 1, +FA, read-out: D4 (+FA) IC50",> 1000 nM
same,IC50,"[5]; Section IV Table 1, read-out: D4 IC50 (FRβ)",4.19 nM
same,IC50,[3]; [11],> 1000 nM
same,IC50,[3]; [12],15.9 nM
same,IC50,[4]; Section IV Table 1,> 1000 nM
CSc1ccc(N(C)c2nc(C)nc3cc[nH]c23)cc1 [Compound 4],IC50,"MDA-MB-435 cancer cells; MDA-MB-435, read-out: IC50 + SD (MDA-MB-435) cancer cells",4 ± 0.5 nM
same,IC50,MDA-MB-435 cancer cells; [13],4.4 ± 0.2 nM
same,IC50,MDA-MB-435 cancer cells; [14],4.4 ± 0.2 nM
same,IC50,"[2]; Homo sapiens, read-out: KB IC50 (FRα/PCFT/RFC)",6.13 nM
same,IC50,"[5]; Cricetulus griseus, CHO, read-out: D4 IC50 (FRβ)",6.11 nM
same,IC50,"[3]; Cricetulus griseus, RT16, read-out: R16 IC50 (FRα)",1.72 nM
same,EC50,[6]; [15],42 nM
same,EC50,[6]; [16],10 nM
same,EC50,[6]; [17],42 nM
COc1cccc2cc(N(C)c3nc(C)nc4sccc34)ccc12 [Compound 6],IC50,MDA-MB-435 cancer cells; [18],3.8 nM
same,EC50,[6]; [19],2.5 nM
CSc1ccc(N(C)c2ncnc3ccsc23)cc1 [Compound 6],IC50,MDA-MB-435 cancer cells; [20],28.2 ± 5.5 nM
same,IC50,MDA-MB-435 cancer cells; [21],28.2 ± 5.5 nM
same,IC50,[7],8.23 nM
same,EC50,[6]; [22],707 nM
same,EC50,[6]; [23],707 nM
same,IC50,[4]; [24],207 nM
COc1ccc(Nc2nc(C)nc3sc(C)c(C)c23)cc1 [Compound 7],EC50,[6]; [19],> 10000 nM
COc1ccc2c(c1)CCCN2c1nc(C)nc2ccsc12 [Compound 7],IC50,MDA-MB-435 cancer cells; [20],3.4 ± 0.9 nM
same,IC50,MDA-MB-435 cancer cells; [21],3.4 ± 0.9 nM
same,IC50,"[2]; Homo sapiens, Section VI Table 1, read-out: KB IC50 (FRα/PCFT/RFC)",38.9 nM
same,EC50,[6]; [22],8 nM
same,EC50,[6]; [23],8 nM
COc1ccc(N(C)c2nc(C)nc3sc(C)c(C)c23)cc1 [Compound 8],IC50,MDA-MB-435 cancer cells; [18],10.7 ± 1 nM
same,EC50,[6]; [19],18 nM
CSc1ccc2c(c1)CCCN2c1ncnc2ccsc12 [Compound 8],IC50,MDA-MB-435 cancer cells; [20],3.8 ± 0.3 nM
same,IC50,MDA-MB-435 cancer cells; [21],3.8 ± 0.3 nM
same,EC50,[6]; [22],22 nM
same,EC50,[6]; [23],22 nM
COc1ccc2c(c1)OCCN2c1nc(C)nc2ccsc12 [Compound 9],IC50,MDA-MB-435 cancer cells; [21],109 nM
same,EC50,[6]; [22],237 nM
same,EC50,[6]; [23],237 nM
CSc1ccc(N(C)c2nc(C)nc3sc(C)c(C)c23)cc1 [Compound 9],IC50,MDA-MB-435 cancer cells; [18],34.8 ± 3.7 nM
same,EC50,[6]; [19],128 nM
COc1ccc2c(c1)CCCN2c1nc(C)nc2sc(C)c(C)c12 [Compound 10],EC50,[6]; [19],> 10000 nM
COc1cccc2cc(N(C)c3nc(C)nc4ccsc34)ccc12 [Compound 10],IC50,MDA-MB-435 cancer cells; [20],1.7 ± 0.2 nM
same,IC50,MDA-MB-435 cancer cells; [21],1.7 ± 0.2 nM
same,EC50,[6]; [22],3 nM
same,EC50,[6]; [23],3 nM
COc1ccc2c(c1)OCCN2c1nc(C)nc2sc(C)c(C)c12 [Compound 11],EC50,[6]; [19],1200 nM
COc1cccc2cc(N(C)c3ncnc4ccsc34)ccc12 [Compound 11],IC50,MDA-MB-435 cancer cells; [13],15.7 ± 2.2 nM
same,IC50,MDA-MB-435 cancer cells; [14],15.7 ± 2.2 nM
same,EC50,[6]; [22],61 nM
"CN(Cc1cnc2nc(N)nc(N)c2n1)c1ccc(C(=O)N[C@@H](CCC(=O)O)C(=O)O)cc1 [MTX, methotrexate, reference compound]",IC50,[8],> 1000 nM
"Nc1nc2[nH]cc(CCc3ccc(C(=O)N[C@@H](CCC(=O)O)C(=O)O)cc3)c2c(=O)[nH]1 [PMX, pemetrexed, reference compound]",IC50,"[2]; Homo sapiens, Section III Table 1, read-out: KB IC50 (RFC/FRα/PCFT)",9.94 nM
same,IC50,[4]; [24],30.6 nM
"Cc1nc2ccc(CN(C)c3ccc(C(=O)N[C@@H](CCC(=O)O)C(=O)O)s3)cc2c(=O)[nH]1 [RTX, raltitrexed]",IC50,[8],> 1000 nM
COc1ccc(N(C)c2nc(C)nc3cc[nH]c23)cc1 [compound 1],IC50,MDA-MB-435 cancer cells; [20],96.6 ± 5.3 nM
same,IC50,MDA-MB-435 cancer cells; [21],96.6 nM
COc1ccc(N(C)c2nc(C)nc3ccsc23)cc1 [compound 2],IC50,MDA-MB-435 cancer cells; [13],7 ± 2.7 nM
same,IC50,MDA-MB-435 cancer cells; [14],7 ± 2.7 nM
same,EC50,[6]; [15],27 nM
same,EC50,[6]; [17],27 nM
CSc1ccc(Nc2nc(C)nc3sccc23)cc1 [compound 2],EC50,[6]; [16],> 10000 nM
COc1ccc(N(C)c2nc(C)nc3sccc23)cc1 [compound 3],IC50,MDA-MB-435 cancer cells; [18],7.6 nM
same,EC50,[6]; [19],15.4 nM
CSc1ccc(Nc2nc(C)nc3cc[nH]c23)cc1 [compound 3],IC50,MDA-MB-435 cancer cells; [20],2100 ± 70 nM
same,IC50,MDA-MB-435 cancer cells; [21],2100 ± 70 nM
same,EC50,[6]; [22],25000 nM
same,EC50,[6]; [23],25000 nM
